Where two headings read alike, the source gives them in different places.
Experiments:
HUVEC cells = assay: Adenosine release from HUVEC by liquid chromatography; type: cell-based, human; settings: over time, normoxic and hypoxic
Experimental: For this reason, studies were undertaken to determine the effect of certain poloxamers in vitro in human vascular endothelial cells (HUVEC) and human skeletal muscle myoblast (HSMM) cells under normoxic and hypoxic (5% O2) conditions. Production of adenosine, cytokines, growth factors, or a combination of these biologically relevant molecules was measured after exposure to either poloxamer-188 (˜BASF Pluronic F-68), poloxamer-235 (˜BASF Pluronic P85), cilostazol, Del-1 protein, or medium alone. Monitoring for generation of adenosine was conducted by HPLC. […] This increased level of adenosine was seen over time in both hypoxic and normoxic cells exposed to poloxamer-235.
HUVEC and HSMM cells are harvested after fourth population doubling from the time of purchase by trypsinization. The cells are suspended in appropriate complete medium and plated in a 60×15 culture dishes at the density of […] per well and incubated for 24 hrs. The cells are fed with EBM (HUVEC cells) and SkBM (HSMM cells) culture medium containing 0.5% FCS for 24 hrs to growth-arrest the cells. […]

[1] = tested on: patients with intermittent claudication; settings: cited from earlier work
[2] = tested on: patients with intermittent claudication; settings: Lederman et al. 2002; cited from earlier work
CD-1 mice = assay: Murine hindlimb ischemia model; type: in vivo, mouse; settings: repeated intramuscular injections
Source text: A gene-based approach to Del-1 delivery using a plasmid vector was developed for the purpose of enhancing relatively sustained local concentrations with a consequent reduction in systemic exposure to the angiogenic growth factor while at the same time avoiding known adverse effects that may arise with the use of a viral platform.
Results from preclinical studies with recombinant murine Del-1 protein and with formulated Del-1 plasmid compared favorably to results obtained with bFGF and VEGF165. In-house research provided for selection of the non-ionic polymer poloxamer 188 as an important constituent for a pharmaceutical formulation of the Del-1 gene encoded on plasmid DNA. The poloxamer formulation was developed after considerable research to provide for a compound that would give increased expression over DNA in saline.
The effects of formulated hDel-1 plasmid versus formulated VEGF165 plasmid and empty plasmid were investigated in a murine hindlimb ischemia model. Bilateral ischemia was induced in hindlimbs of CD-1 mice by ligation of the femoral artery. A control group underwent sham surgery without femoral artery ligation. […] Exercise tolerance was then determined at weekly intervals through four weeks post surgery.

mice = assay: Subcutaneous Matrigel implant model; type: in vivo, mouse
Source text: Poloxamer Inhibition of Inflammation in Murine Study: Initial studies incorporating either FGF (positive control), saline (negative control), Del-1 protein (another known angiogenic agent) or poloxamer-188 into Matrigel that was placed subcutaneously into the lower abdomen of mice yielded interesting results. Matrigel Basement Membrane Matrix (BD Biosciences) is a solubilized basement membrane preparation extracted from the Engelbreth-Holm-Swarm (EHS) mouse sarcoma. Its major component is laminin, followed by collagen IV, heparan sulfate proteoglycans, entactin and nidogen. In the Matrigel angiogenesis model, poloxamer-188 was compared to other known angiogenic agents such as fibroblast growth factor (FGF, positive control), Del-1 protein, or saline as a negative control.
After gaining experience with the system, it was felt that the quantity of Del-1 used should be titrated to see if a dose response with the protein could be distinguished, and to alter the ratio of P188 to matrigel. In the first round of studies it was noted that the 5% P188 concentration added to the Matrigel appeared to inhibit polymerization of the Matrigel. […] Therefore, in the repeat in vivo experiment the Matrigel and poloxamer concentrations were altered such that the initial concentrations were similar to those that yielded good polymerization, but still gave a final concentration of 5% P188 (the concentration tested in clinical trials).
Matrigel implants were placed subcutaneously in the lower abdominal/inguinal region of mice and harvested 4 to 7 days later.

Row | Molecule | adenosine in the supernatant (HUVEC cells) | peak walking time ([1]; 100 mg twice/day) | observed difference in change in PWT versus placebo ([1]; Dawson et al. 1998) | side effects (headaches, palpitations, gastrointestinal disturbances) ([1]; clinical trials) | observed difference in change in PWT versus placebo [2] | vascular perfusion (CD-1 mice) | cellular response of Matrigel implant (mice; Del-1 less than 200 ugs/ml) | vessel growth in Matrigel angiogenesis model (mice; first round of studies) | morphologic pattern of Matrigel implant (cellularity) (mice; harvested 4 to 7 days, H&E, Del-1 at 200 ug/ml)
1 | O=C1CCc2cc(OCCCCc3nnnn3C3CCCCC3)ccc2N1 [cilostazol] | least stimulatory | improve peak walking time | 2.00 min | high incidence of side effects | – | – | – | – | –
2 | recombinant fibroblast growth factor-2: recombinant fibroblast growth factor-2 of the TRAFFIC study | – | – | – | – | 1.17 min | – | – | – | –
3 | Del-1 protein: Developmentally regulated Endothelial Locus-1, an endothelial cell stimulating angiogenic protein (protein, UniProt O43854 24-480, looked up) EGF-like repeat and discoidin …: DICDPNPCENGGICLPGLADGSFSCECPDGFTDPNCSSVVEVASDEEEPTSAGPCTPNPCHNGGTCEISEAYRGDTFIGYVCKCPRGFNGIHCQHNINECEVEPCKNGGICTDLVANYSCECPGEFMGRNCQYKCSGPLGIEGGIISNQQITASSTHRALFGLQKWYPYYARLNKKGLINAWTAAENDRWPWIQINLQRKMRVTGVITQGAKRIGSPEYIKSYKIAYSNDGKTWAMYKVKGTNEDMVFRGNIDNNTPYANSFTPPIKAQYVRLYPQVCRRHCTLRMELLGCELSGCSEPLGMKSGHIQDYQITASSIFRTLNMDMFTWEPRKARLDKQGKVNAWTSGHNDQSQWLQVDLLVPTKVTGIITQGAKDFGHVQFVGSYKLAYSNDGEHWTVYQDEKQRKDKVFQGNFDNDTHRKNVIDPPIYARHIRILPWSWYGRITLRSELLGCTEEE | least stimulatory | – | – | – | – | increased vascular perfusion | substantially less cellular response | light to moderate vessel growth | high cellularity
